# Measurements: PubChem BioAssay AID652053 (Broad Institute, 2013)
# Values joined by “and” are separate entries in the source; they are usually repeats but may differ in a detail not shown here. Identical values can stand only once.
# Test system: Huh7 psiCHECK-miR122 Renilla luciferase reporter, 48 h
# Assay: miR-122 inhibitors in Huh7 reporter cells, dose response, cell-based, Huh7 psiCHECK-miR122, Renilla luciferase, cherry-pick (AID 652053)
row,Compound,AC40
1,Cn1cc(CC(=O)Nc2cccc(C#N)c2)c2ccccc21,3.57 µM
2,CCc1ccc(-c2cc(C)no2)cc1S(=O)(=O)NCCc1ccc(S(N)(=O)=O)cc1,4.08 µM
3,COc1ccc(NP(=O)(Oc2ccc(Cl)cc2)Oc2ccc(Cl)cc2)cc1OC,7.43 µM
4,O=C(NC(=S)Nc1ccc(S(=O)(=O)NC2CCCCC2)cc1)c1cccs1,0.715 µM
5,CN1c2ccc(-c3ccccc3F)cc2[C@H]2[C@H](CCN2S(=O)(=O)c2ccccc2F)[C@H]1CO,2.4 µM
6,COc1ccc(NS(=O)(=O)c2cc(N)ccc2N2CCOCC2)cc1,6.74 µM
7,O=C(COc1ccc(S(=O)(=O)NC2CCCCC2)cc1)NC1CCCC1,8.46 µM
8,Cc1ccc(S(=O)(=O)Nc2ccc(-n3cnnn3)cc2)c(C)c1,0.759 µM
9,Cc1cc(C)cc(NS(=O)(=O)c2ccc(NC(=S)NC(=O)c3cccs3)cc2)c1,< 0.26 µM
10,COc1ccc(S(=O)(=O)Nc2cc(Cl)ccc2OC)cc1,2.68 µM
11,C[C@H](CO)N1C[C@H](C)[C@@H](CN(C)Cc2ccc(C(=O)Nc3ccccc3N)cc2)Oc2c(NC(=O)Nc3ccccc3)cccc2C1=O,23.5 µM
12,C[C@H](CO)N1C[C@H](C)[C@@H](CN(C)Cc2ccc3c(c2)OCO3)Oc2c(NC(=O)NC3CCCCC3)cccc2C1=O,2.53 µM
13,CCOc1cc(C)c(Cl)cc1S(=O)(=O)NC1CC(C)(C)NC(C)(C)C1,6.39 µM
14,Cc1ccc(S(=O)(=O)NC2CCCCCC2)cc1,2.92 µM
15,CC(=O)N1CCc2cc(S(=O)(=O)Nc3cccc(C(F)(F)F)c3)ccc21,2.92 µM
16,S=C(NCC1CCCCC1)Nc1ccc(Oc2ccccc2)cc1,14.6 µM
17,CCCn1c(N)c(C(=O)CSc2nnc(Cc3cccs3)n2C2CC2)c(=O)n(C)c1=O,7.17 µM
18,CN1C(=O)c2cc(NC(=O)Cc3ccccc3)ccc2OC[C@@H]2O[C@H](CC(=O)NCc3ccc(Cl)cc3)CC[C@@H]21,< 0.26 µM
19,COc1ccc(-c2cc(C(=O)N(C)Cc3ccccc3F)c3ccccc3n2)cc1OC,14.7 µM
20,COc1ccccc1N(CC(=O)N1CCCCC1C)S(=O)(=O)c1ccc(Cl)cc1 (stereo not drawn),2.31 µM
21,COc1cc(C)c(C(C)C)cc1S(=O)(=O)NC1CC(C)(C)NC(C)(C)C1,0.59 µM
22,Cc1cc(C)c(S(=O)(=O)NCc2ccccn2)cc1C,9.76 µM
23,Cc1ccc(NC(=O)C(=O)c2c(-c3ccccc3)cc3ccccn23)cc1S(=O)(=O)N1CCOCC1,27.9 µM
24,COc1ccc(C(=O)Nc2cccc(S(=O)(=O)NCc3ccco3)c2)cc1,0.822 µM
25,CCn1cc(S(=O)(=O)CC(=O)Nc2ccc(C)cc2)c2ccccc21,15.1 µM

row,Compound,AC40
1,Cc1ccc(S(=O)(=O)Nc2ccc3ccccc3c2)cc1,7.08 µM
2,O=C(Cc1ccccc1)N1C[C@@H]2[C@H](c3ccccc31)[C@@H](CO)N2C(=O)Nc1ccc(F)cc1,2.61 µM
3,C[C@H](CO)N1C[C@H](C)[C@H](CN(C)CC2CCCCC2)Oc2c(NC(=O)C3CCOCC3)cccc2C1=O,1.95 µM
4,OCC1OC(n2cnc3c(NCc4ccccc4O)ncnc32)C(O)C1O (stereo not drawn),3.86 µM
5,Cc1ccc(S(=O)(=O)N2CC[C@@H]3[C@@H](CO)Nc4ccc(-c5ccccc5F)cc4[C@@H]32)cc1,1.69 µM
6,c1ccc(-n2nnnc2-c2cccc3ccccc23)cc1,10.6 µM
7,CC(=O)N1CCCc2cc(S(=O)(=O)Nc3ccc4c(c3)OCO4)ccc21,6.16 µM
8,C[C@H](CO)N1C[C@H](C)[C@H](CN(C)Cc2ccc3c(c2)OCO3)Oc2c(NC(=O)C3CCOCC3)cccc2C1=O,10.5 µM
9,CC(C)NC(=O)Nc1ccc2c(c1)CC(=O)N([C@H](C)CO)C[C@H](C)[C@H](CN(C)Cc1ccc(C(=O)Nc3ccccc3N)cc1)O2,14.2 µM
10,CC(C)c1ccc(NC(=S)NCc2cccs2)cc1,2.8 µM
11,Cc1ccc(C)c(S(=O)(=O)Nc2ccc(-n3cnnn3)cc2)c1,< 0.26 µM
12,CCCC(C)NS(=O)(=O)c1ccc(OC)c(C)c1 (stereo not drawn),10 µM
13,C[C@@H]1CN([C@@H](C)CO)S(=O)(=O)c2ccc(C#CCN(C)C)cc2O[C@@H]1CN(C)Cc1ccc2c(c1)OCO2,8.29 µM
14,N#Cc1ccc(NC(=S)N2CCC3CC2c2cc(-c4ccc5c(c4)OCO5)ccc23)cc1 (stereo not drawn),0.31 µM
15,COc1cc(NS(=O)(=O)c2ccc(NC(=S)NC(=O)c3ccco3)cc2)nc(OC)n1,7.11 µM
16,O=C(c1ccc(F)cc1)N1C[C@H]2[C@@H](c3ccccc31)[C@@H](CO)N2C(=O)c1ccccc1,17.6 µM
17,C[C@H](CO)N1C[C@H](C)[C@H](CN(C)Cc2ccc(C(=O)Nc3ccccc3N)cc2)Oc2c(NC(=O)Nc3ccccc3)cccc2C1=O,30.8 µM
18,COc1ccc(S(=O)(=O)N(CCc2ccccc2)CC(=O)N2CCOCC2)cc1,17.1 µM
19,COc1ccc(OC)c(-c2csc(NC(=O)Cc3ccccc3F)n2)c1,8.49 µM
20,CCCCOC(=O)NC1CCc2cc(OC)c(OC)c(OC)c2-c2ccc(SC)c(=O)cc21 (stereo not drawn),0.863 µM
21,O=S(=O)(/N=C(/Nc1ccc(Cl)c(S(=O)(=O)Nc2ccccc2Cl)c1)c1ccc(F)cc1)c1ccccc1,26.8 µM
22,CCc1c(C(=O)Nc2cc(C)cc(C)c2)[nH]c(C)c1C(C)=O,14.8 µM
23,COc1cccc(C(=O)N2C[C@H]3[C@@H](c4ccccc42)[C@H](CO)N3C(=O)c2ccc(F)cc2)c1,33.6 µM
24,Cc1cc(C)c(S(=O)(=O)NCCCn2ccnc2)cc1C,1.45 µM
25,COc1ccc(OC)c(S(=O)(=O)Nc2ccc3oc4c(c3c2)C(=O)CCC4)c1,17.7 µM

row,Compound,AC40
1,Cc1ccc(Cn2c(NS(=O)(=O)c3ccccc3)nc3ccccc32)cc1,2 µM
2,CCCCNS(=O)(=O)c1ccc(OC)c(Cl)c1Cl,3.99 µM
3,COc1ccc(S(=O)(=O)NCCN2CCOCC2)c2ccccc12,0.789 µM
4,COc1ccc(F)cc1S(=O)(=O)Nc1ccc2c(c1)OCO2,5.47 µM
5,Cc1ccc(S(=O)(=O)Nc2ccc3c(c2)CC(=O)N([C@H](C)CO)C[C@H](C)[C@H](CN(C)Cc2ccc(C(=O)Nc4ccccc4N)cc2)O3)cc1,6.79 µM
6,O=S(=O)(Nc1ccccc1)c1ccc(Oc2ncc(C(F)(F)F)cc2Cl)cc1,21.6 µM
7,Cc1ccc(C)c(S(=O)(=O)NCC(c2ccc3c(c2)OCO3)N2CCOCC2)c1 (stereo not drawn),1.81 µM
8,Cc1ccc(NC(=O)CNC(=O)c2cccs2)cc1S(=O)(=O)Nc1ccc(Cl)cc1,3.31 µM
9,Cc1cccc(-c2nn(-c3ccccc3)cc2C(=O)Nc2cccc(S(=O)(=O)NC3=NCCC3)c2)c1,18.3 µM
10,Cc1ccc(-c2nnc(Nc3ccc4c(c3)OCO4)c3ccccc23)cc1S(N)(=O)=O,5.9 µM
11,C[C@H](CO)N1C[C@H](C)[C@@H](CN(C)Cc2ccc3c(c2)OCO3)Oc2c(NC(=O)C3CC3)cccc2C1=O,11.7 µM and 3.61 µM
12,COc1ccc2oc(C(=O)N3CCc4ccccc43)c(C)c2c1,5.37 µM
13,CCc1ccc(OC)c(S(=O)(=O)Nc2ccccc2C)c1,1.03 µM
14,CCCCn1c(NC(=O)c2ccc(Br)o2)c(S(=O)(=O)c2ccccc2)c2nc3ccccc3nc21,25.7 µM
15,Cc1cccc(NS(=O)(=O)c2cccc(C(=O)N3CCCCCCC3)c2)c1,1.8 µM
16,O=C(c1ccccc1F)N1CC[C@@H]2[C@@H](CO)Nc3ccc(-c4cccc(F)c4)cc3[C@@H]21,1.29 µM
17,CCOC(=O)c1c(NC(=O)c2ccccc2N(C)S(=O)(=O)c2ccccc2)sc2c1CCCC2,13.3 µM
18,COc1cc(NS(=O)(=O)c2cc3c(cc2C)NC(=O)CO3)cc(OC)c1,4.02 µM
19,C[C@H](CO)N1C[C@H](C)[C@H](CN(C)Cc2ccc(C(=O)Nc3ccccc3N)cc2)Oc2c(cccc2N(C)C)C1=O,8.75 µM
20,Cc1cc(C(C)(C)C)cc(S(=O)(=O)Nc2ccc(C(=O)O)cc2)c1C,9.72 µM
21,CCCNC(=O)NC[C@@H]1[C@@H](c2ccc(C3=CCCC3)cc2)[C@@H](CO)N1C(=O)CC,16.9 µM
22,COc1ccc(NS(=O)(=O)c2cc(NC(=O)c3ccc(=O)[nH]c3)ccc2C)cc1,2.64 µM
23,S=C(NCc1ccncc1)Nc1cc(Cl)cc(Cl)c1,5.2 µM
24,COc1cc(S(=O)(=O)N2CCCCCC2)c(OC)cc1Br,1.74 µM
25,O=S1(=O)N=CN(Cc2cccc(F)c2)c2ccccc21,3.02 µM

row,Compound,AC40
1,CSc1cccc(NS(=O)(=O)c2cc(Br)cnc2N)c1,2.5 µM
2,COc1ccccc1N/C(=N/S(=O)(=O)c1ccc(C)cc1)c1ccccc1,9.99 µM
3,O=C(C1CCCCC1)N1C[C@H]2[C@@H](c3ccccc31)[C@@H](CO)N2C(=O)c1ccccc1,1.37 µM
4,C[C@H]1CN([C@@H](C)CO)C(=O)c2cccc(NC(=O)Nc3ccc(C(F)(F)F)cc3)c2O[C@@H]1CN(C)CC1CCCCC1,3.47 µM
5,COc1ccc(C2C(Oc3ccccc3)C(=O)N2c2cc(C)ccc2C)cc1OC (stereo not drawn),23.1 µM
6,CCOC(=O)c1c(C)[nH]c(C)c1S(=O)(=O)NCCc1ccc(SC)cc1,0.686 µM
7,Cc1ccc(CN2CCSc3ccc(C(=O)NCc4ccco4)cc32)cc1,11.3 µM
8,COc1ccccc1C(=O)Nc1ccc2c(c1)C(=O)N(C)[C@H]1CC[C@H](CC(=O)NCc3ccc(Cl)c(Cl)c3)O[C@H]1CO2,0.333 µM
9,Cc1cc(C(=O)Nc2cccc3c2O[C@@H](CN(C)CC2CCCCC2)[C@@H](C)CN([C@H](C)CO)C3=O)n(C)n1,2.41 µM
10,COCC#Cc1ccc2c(c1)O[C@H](CN(C)S(=O)(=O)c1ccc(OC)cc1)[C@H](C)CN([C@H](C)CO)S2(=O)=O,5.8 µM
11,COc1ccc2nc(Nc3nc(CSc4nc5ccccc5[nH]4)cc(=O)[nH]3)nc(C)c2c1,9.96 µM
12,COc1cc(NS(=O)(=O)c2ccc(C)c(C)c2)c(OC)cc1Cl,15.2 µM
13,C[C@@H]1CN([C@@H](C)CO)C(=O)c2cccc(NS(=O)(=O)c3ccc(F)cc3)c2O[C@@H]1CN(C)Cc1ccc(C(=O)Nc2ccccc2N)cc1,10.4 µM
14,CSc1ccc(S(=O)(=O)NC2CCCCCC2)cc1,1.72 µM
15,COc1ccc(C)cc1S(=O)(=O)Nc1cccc(SC)c1,0.582 µM
16,O=C(Cc1ccccc1)N1CC[C@@H]2[C@@H](CO)Nc3ccc(-c4cccc(F)c4)cc3[C@@H]21,7.15 µM
17,CCOc1ccc(S(=O)(=O)Nc2cccc(Cl)c2)cc1,3.84 µM
18,CC(C)C(=O)Nc1ccc2c(c1)C(=O)N(C)[C@H]1CC[C@H](CC(=O)NCc3cccc(F)c3)O[C@H]1CO2,17.7 µM
19,Cc1cc(C)c(S(=O)(=O)Nc2ccc3c4c(cccc24)CC3)c(C)c1,7.76 µM
20,O=C(COc1ccc(S(=O)(=O)NC2CCCCC2)cc1)Nc1ccc2c(c1)OCCO2,7.82 µM
21,FC(F)(F)c1cccc(NC(=S)NCCc2ccccn2)c1,2.88 µM
22,Cc1c(C)c(C)c(S(=O)(=O)NCCc2ccccn2)c(C)c1C,1.69 µM
23,CC(=O)N1c2c(cc(Br)cc2S(=O)(=O)NCc2ccccc2)CC1C (stereo not drawn),5.96 µM
